ChEMBL document CHEMBL5316291 (J Med Chem, 2023)
Active and inactive are the calls of the source. The calls are words filed in the database; no cut-off is given here.

What was measured:
[1] = tested on: CT26; assay: Antitumor activity against mouse CT26 cells implanted in BALB/c mouse assessed as tumor cell contraction at 25 to 100 mg/kg, po bid measured for 14 days by hematoxylin and eosin staining based fluorescence microscopic analysis; type: functional, organism-based; settings: dose 25-100 mg/kg, time 14.0 day
[2] = Toxicity in BALB/c mouse implanted with mouse CT26 cells assessed as change in body weight at 1000 mg/kg, po measured upto 7 days; type: organism-based; settings: in vivo, 168 h, time < 7 day
[3] = Half life in ICR mouse at 1 mg/kg, iv measured upto 24 hrs by LC-MS/MS analysis; type: ADME, organism-based; settings: in vivo
[4] = target: T1, Protein mono-ADP-ribosyltransferase PARP12 (Homo sapiens, UniProt Q9H0J9); assay: Inhibition of human recombinant N-terminal GST-tagged PARP12 (500 to 701 end residues) expressed in baculovirus infected Sf9 cells expression system incubated for 1 hr by ELISA assay
T1 sequence (Q9H0J9 whole entry): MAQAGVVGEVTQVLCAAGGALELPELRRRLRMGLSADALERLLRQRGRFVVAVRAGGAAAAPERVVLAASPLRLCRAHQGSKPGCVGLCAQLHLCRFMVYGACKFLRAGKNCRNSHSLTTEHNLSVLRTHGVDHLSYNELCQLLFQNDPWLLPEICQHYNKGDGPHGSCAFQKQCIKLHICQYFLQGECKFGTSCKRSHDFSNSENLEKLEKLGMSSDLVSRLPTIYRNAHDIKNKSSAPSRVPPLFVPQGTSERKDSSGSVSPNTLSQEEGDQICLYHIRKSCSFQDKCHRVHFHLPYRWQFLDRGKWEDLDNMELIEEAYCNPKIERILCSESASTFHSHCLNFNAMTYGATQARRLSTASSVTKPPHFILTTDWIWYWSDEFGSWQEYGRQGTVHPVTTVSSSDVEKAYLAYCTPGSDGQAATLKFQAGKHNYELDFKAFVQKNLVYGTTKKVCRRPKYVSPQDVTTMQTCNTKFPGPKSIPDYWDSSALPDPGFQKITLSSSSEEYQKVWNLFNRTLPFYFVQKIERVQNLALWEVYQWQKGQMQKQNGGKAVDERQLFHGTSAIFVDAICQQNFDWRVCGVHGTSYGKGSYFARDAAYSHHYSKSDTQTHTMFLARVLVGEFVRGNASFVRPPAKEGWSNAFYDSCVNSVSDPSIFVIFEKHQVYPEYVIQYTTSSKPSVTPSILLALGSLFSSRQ

[5] = Toxicity in BALB/c mouse implanted with mouse CT26 cells assessed as kidney damage at 100 mg/kg, po measured for 14 days by hematoxylin and eosin staining based fluorescence microscopic analysis; type: organism-based; settings: in vivo, 336 h, time 14 day
[6] = Half life in ICR mouse at 10 mg/kg, po measured upto 24 hrs by LC-MS/MS analysis; type: ADME, organism-based; settings: in vivo
[7] = tested on: CT26; assay: Antitumor activity against mouse CT26 cells implanted in immunodeficient BALB/c mouse at 100 mg/kg, po bid measured for 10 days; type: functional, organism-based; settings: time 10.0 day
[8] = tested on: CT26; assay: cells; settings: Mus musculus, CT26, 144 h
[9] = Clearance in ICR mouse at 1 mg/kg, iv measured upto 24 hrs by LC-MS/MS analysis; type: ADME, organism-based; settings: in vivo
[10] = tested on: CT26; assay: Antitumor activity against mouse CT26 cells implanted in BALB/c mouse assessed as increase in infiltration of CD3 positive CD4 positive T lymphocytes in tumors at 50 mg/kg, po measured after 14 days by flow cytometry (reference value: 7.95%); type: functional; settings: time 14 day
[11] = target: T2, Protein mono-ADP-ribosyltransferase PARP10 (Homo sapiens, UniProt Q53GL7); assay: Inhibition of human recombinant N-terminal FLAG-tagged / C-terminal Strep-tagged PARP10 (805 to 1025 end residues) expressed in baculovirus infected Sf9 cells expression system incubated for 1 hr by ELISA assay
T2 sequence (Q53GL7 whole entry): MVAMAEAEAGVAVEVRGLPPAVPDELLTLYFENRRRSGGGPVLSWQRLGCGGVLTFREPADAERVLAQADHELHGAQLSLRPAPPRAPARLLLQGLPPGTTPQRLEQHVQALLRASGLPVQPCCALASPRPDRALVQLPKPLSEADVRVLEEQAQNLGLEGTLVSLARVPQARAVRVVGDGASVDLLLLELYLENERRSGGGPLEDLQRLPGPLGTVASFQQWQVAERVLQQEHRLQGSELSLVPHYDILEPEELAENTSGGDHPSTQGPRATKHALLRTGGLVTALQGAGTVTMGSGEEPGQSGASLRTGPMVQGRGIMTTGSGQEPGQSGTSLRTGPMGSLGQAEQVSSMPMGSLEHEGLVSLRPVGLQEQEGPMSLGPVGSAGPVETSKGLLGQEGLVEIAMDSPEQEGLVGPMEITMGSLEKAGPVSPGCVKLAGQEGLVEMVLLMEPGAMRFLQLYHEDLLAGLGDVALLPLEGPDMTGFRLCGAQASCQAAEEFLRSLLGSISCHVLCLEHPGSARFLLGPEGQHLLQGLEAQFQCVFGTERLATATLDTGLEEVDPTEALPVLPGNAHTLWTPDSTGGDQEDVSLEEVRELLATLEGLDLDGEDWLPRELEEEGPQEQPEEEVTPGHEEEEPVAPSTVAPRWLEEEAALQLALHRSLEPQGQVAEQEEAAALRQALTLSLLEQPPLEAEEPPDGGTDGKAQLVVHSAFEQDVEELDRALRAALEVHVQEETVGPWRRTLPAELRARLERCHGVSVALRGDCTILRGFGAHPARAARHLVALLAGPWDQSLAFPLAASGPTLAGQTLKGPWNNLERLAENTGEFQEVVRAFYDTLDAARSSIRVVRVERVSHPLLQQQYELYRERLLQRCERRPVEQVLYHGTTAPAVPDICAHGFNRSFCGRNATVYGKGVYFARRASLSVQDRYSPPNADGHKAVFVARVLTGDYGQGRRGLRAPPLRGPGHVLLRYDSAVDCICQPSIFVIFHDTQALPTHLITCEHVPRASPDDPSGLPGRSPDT

[12] = MRT(0 to infinity) in ICR mouse at 10 mg/kg, po measured upto 24 hrs by LC-MS/MS analysis; type: ADME, organism-based; settings: in vivo
[13] = tested on: CT26; assay: Antitumor activity against mouse CT26 cells implanted in BALB/c mouse assessed as decrease in Ki-67 expression at 25 to 100 mg/kg, po bid measured for 14 days by immunohistochemistry analysis; type: functional, organism-based; settings: dose 25-100 mg/kg, time 14.0 day
[14] = Toxicity in BALB/c mouse implanted with mouse CT26 cells assessed as liver damage at 100 mg/kg, po measured for 14 days by hematoxylin and eosin staining based fluorescence microscopic analysis; type: organism-based; settings: in vivo, 336 h, time 14 day
[15] = Cytotoxicity against mouse AML12 cells assessed as inhibition of cell growth measured after 6 days by MTT assay; type: toxicity, cell-based
[16] = target: Voltage-gated inwardly rectifying potassium channel KCNH2 (Homo sapiens, UniProt Q12809); assay: Inhibition of hERG; type: toxicity
[17] = Apparent volume of distribution in ICR mouse at 10 mg/kg, po measured upto 24 hrs by LC-MS/MS analysis; type: ADME, organism-based; settings: in vivo

Chain of Voltage-gated inwardly rectifying potassium channel KCNH2 (Q12809 whole entry): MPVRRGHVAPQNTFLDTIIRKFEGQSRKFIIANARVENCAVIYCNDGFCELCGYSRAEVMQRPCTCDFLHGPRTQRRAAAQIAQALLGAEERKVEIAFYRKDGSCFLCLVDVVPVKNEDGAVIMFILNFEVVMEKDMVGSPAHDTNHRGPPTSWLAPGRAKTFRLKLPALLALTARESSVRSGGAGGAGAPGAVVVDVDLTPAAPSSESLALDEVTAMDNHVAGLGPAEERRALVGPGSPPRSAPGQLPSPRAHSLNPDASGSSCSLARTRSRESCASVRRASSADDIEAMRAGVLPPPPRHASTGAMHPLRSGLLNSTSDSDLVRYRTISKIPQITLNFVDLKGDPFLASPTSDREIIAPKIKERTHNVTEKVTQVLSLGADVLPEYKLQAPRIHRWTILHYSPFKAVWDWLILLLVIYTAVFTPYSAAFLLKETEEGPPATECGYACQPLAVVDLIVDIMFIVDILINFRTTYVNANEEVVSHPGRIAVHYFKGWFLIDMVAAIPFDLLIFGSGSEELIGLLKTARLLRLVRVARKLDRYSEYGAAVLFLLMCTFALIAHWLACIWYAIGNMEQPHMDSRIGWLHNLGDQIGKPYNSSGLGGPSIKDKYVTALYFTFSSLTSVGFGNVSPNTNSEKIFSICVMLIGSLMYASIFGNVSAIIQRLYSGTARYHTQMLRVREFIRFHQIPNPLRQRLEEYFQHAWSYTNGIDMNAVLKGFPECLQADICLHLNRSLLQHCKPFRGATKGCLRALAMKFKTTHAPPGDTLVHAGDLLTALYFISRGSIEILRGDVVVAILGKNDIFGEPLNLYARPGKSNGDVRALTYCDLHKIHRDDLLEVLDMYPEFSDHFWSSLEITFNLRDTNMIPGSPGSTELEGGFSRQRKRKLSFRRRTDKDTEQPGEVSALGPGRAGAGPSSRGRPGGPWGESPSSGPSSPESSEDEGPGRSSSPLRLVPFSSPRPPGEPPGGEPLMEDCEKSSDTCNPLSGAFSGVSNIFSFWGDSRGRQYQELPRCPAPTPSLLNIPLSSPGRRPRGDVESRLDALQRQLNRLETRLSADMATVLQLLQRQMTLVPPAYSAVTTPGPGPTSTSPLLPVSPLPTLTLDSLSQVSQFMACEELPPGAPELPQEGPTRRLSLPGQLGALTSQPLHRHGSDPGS

C[C@@H](CN1CC(C(=O)N2CCN(c3ncc(C(F)(F)F)cn3)CC2)C1)Nc1cn[nH]c(=O)c1C(F)(F)F
Activity [1]: Active
Activity [2]: Non-Toxic
t1/2 [3]: 1.44 h
IC50 [4]: 453 nM
Activity [5]: Non-Toxic
t1/2 [6]: 1.74 h
Activity [7]: inactive
IC50 [8]: 19.5 µM
clearance [9]: 29 mL/min/kg
Activity [10]: 63.1%
IC50 [11]: 325 nM
MRT inf [12]: 1.97 h
Activity [13]: Active
Activity [14]: Non-Toxic
IC50 at 6 days [15]: > 50 µM
inhibition (INH) [16]: Not Active
Vz [17]: 4583.6 mL/kg
